The numbers were not newly measured in US20180325839A1, “TRANSDERMAL PATCHES” (BUZZZ PHARMACEUTICALS LIMITED, priority 2015, published 2018), which cites them from elsewhere.

Molecules are shown by their SMILES.

The conditions of data set [1]: local anaesthetic during cataract surgery.

Regarding `CCCN1CCCC[C@H]1C(=O)Nc1c(C)cccc1C` [ropivacaine, (2S)—N-(2,6-dimethylphenyl)-1-propyl-2-piperidinecarboxamide], the “Skin permeation characteristics compared with lidocaine saturated H2O” value (ropivacaine saturated H2O) is on record as “significantly poorer”. For the same compound, the “In vivo skin penetration compared to a saturated solution of lidocaine” value (saturated solution of ropivacaine) is recorded as “poor”. Further, in data set [1], the “Half-life compared with lidocaine” value is on record as “longer” and the “Potency relative to lidocaine, dose-for-dose” value is listed as “as much as four times as potent as lidocaine”.
